Source: patent US20260325533A1, “CDK INHIBITOR COMPOUNDS” (ALEKSIA THERAPEUTICS, INC., priority 2023, published 2026)
Like-named read-outs stand apart in the source and are kept apart here.

Tests used:
CDK2/CCNE1 = CDK2/CCNE1 (Homo sapiens, UniProt P24941); test: CDK2 homogeneous time-resolved fluorescence (HTRF) kinase assay; format: biochemical; details: CDK2/CCNE
Procedure: (§1) A CDK homogeneous time-resolved fluorescence (HTRF) assay was used to assess the potency of the compounds described herein.
(§2) To an untreated 384-well microtiter plate (ProxiPlate) was added 100 nL 100×test compound in DMSO and 5 μL 2×CDK enzyme in assay buffer (50 mM HEPES, 1 mM EGTA, 10 mM MgCl2, 0.01% Tween 20, 2 mM DTT). The plate was centrifuged at 800 RPM for 1 min then incubated for 20 min at 23 °C. 2.5 μL per well of 4×ATP and 2.5 μL 4×ULight™-eIF4E-binding protein 1 (Thr37/46) Peptide substrate were added to all wells. After addition, the plates were centrifuged at 800 RPM for 1 min. The plates were incubated at 23 °C for 60 min. 5 μL per well 4×EDTA solution were added to each well to stop the reaction. 5 μL 4×LANCE Ultra Europium-anti-phospho-eIF4E-binding protein 1 (Thr37/46) antibody were added to each well and the plate was centrifuged for 1 min at 800 RPM. The plate was incubated for 60 min at 23 °C. Fluorescence was read at 340 nm excitation and 665 nm emission on an En Vision 2105 fluorescence reader. The final concentrations of reagents in the activity assay were 3 nM CDK2/CCNE1, 1 mM ATP, 50 nM ULight™-eIF4E-binding protein 1 (Thr37/46) Peptide substrate, 1% DMSO, 10 mM EDTA, and 2 nM LANCE Ultra Europium-anti-phospho-eIF4E-binding protein 1 (Thr37/46).
(§3) Dose-response titrations were conducted by using an 11-point, half-logarithmic serial dilution scheme typically starting at 10 μM. Signals were reported as fluorescence units at 665 nm or the ratio of fluorescence units at 665 nm/fluorescence units at 615 nm. Signals are referred to below as “Lance signals”.
(§4) Using this assay, the IC50 values of example compounds were determined. Table 3 illustrates the IC50 for various Example compounds of Formula IA. Table 4 illustrates the IC50 for various other Example compounds of Formula I. ND=not determined.

CDK1/CCNB1 = CDK1/CCNB1 (Homo sapiens, UniProt P06493); test: CDK1 homogeneous time-resolved fluorescence (HTRF) kinase assay; format: biochemical; details: CDK1/CCNB
Procedure: as §1
as §2, with “were 0.5” for “were 3”, “nM CDK1/CCNB1,” for “nM CDK2/CCNE1,”
as §3, §4

[1] = 25-250 nM marked x, read-out: CDK2/CCNE IC50 25-250 nM
[2] = >250 nM marked x, read-out: CDK1/CCNB IC50 >250 nM
[3] = >250 nM marked x, read-out: CDK2/CCNE IC50 >250 nM
[4] = <25 nM, read-out: CDK2/CCNE IC50 <25 nM

Sequence of CDK1/CCNB1 (P06493 whole entry): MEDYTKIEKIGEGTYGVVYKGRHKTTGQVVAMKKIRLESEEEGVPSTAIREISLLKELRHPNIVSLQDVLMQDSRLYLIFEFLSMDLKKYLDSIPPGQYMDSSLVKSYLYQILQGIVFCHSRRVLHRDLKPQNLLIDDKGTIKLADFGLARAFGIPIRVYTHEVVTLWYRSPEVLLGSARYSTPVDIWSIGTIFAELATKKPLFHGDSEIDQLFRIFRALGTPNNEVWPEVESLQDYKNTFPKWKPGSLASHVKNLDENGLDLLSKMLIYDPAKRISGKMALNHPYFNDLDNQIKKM
Sequence of CDK1/CCNB1 (P14635 whole entry partner): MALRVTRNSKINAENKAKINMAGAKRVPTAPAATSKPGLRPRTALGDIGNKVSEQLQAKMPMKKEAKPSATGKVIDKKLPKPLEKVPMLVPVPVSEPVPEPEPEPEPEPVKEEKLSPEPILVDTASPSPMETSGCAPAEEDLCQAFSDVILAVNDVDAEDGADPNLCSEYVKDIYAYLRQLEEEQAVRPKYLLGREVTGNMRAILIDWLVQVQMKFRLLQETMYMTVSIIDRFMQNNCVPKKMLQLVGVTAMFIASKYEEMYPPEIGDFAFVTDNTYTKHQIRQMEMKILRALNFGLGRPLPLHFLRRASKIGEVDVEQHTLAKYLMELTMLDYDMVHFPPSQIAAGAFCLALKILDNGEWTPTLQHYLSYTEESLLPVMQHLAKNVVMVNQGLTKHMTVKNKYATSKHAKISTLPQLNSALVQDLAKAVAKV

With `CS(=O)(=O)N1CCC(Nc2cc3c(-c4ccc(C(F)(F)F)nc4)nccc3cn2)CC1` [Ex 62, N-(1-(methylsulfonyl)piperidin-4-yl)-5-(6-(trifluoromethyl)pyridin-3-yl)-2,6-naphthyridin-3-amine] the IC50 (CDK2/CCNE1; [1]) was 25 to 250 nM and the IC50 (CDK1/CCNB1; [2]) was > 250 nM.

`CS(=O)(=O)N1CCC(Nc2cc3c(-c4cnc(N)nc4)nccc3cn2)CC1` [Ex 66, 5-(2-aminopyrimidin-5-yl)-N-(1-(methylsulfonyl)piperidin-4-yl)-2,6-naphthyridin-3-amine] was tested, and the IC50 (CDK2/CCNE1; [3]) was > 250 nM and the IC50 (CDK1/CCNB1; [2]) was > 250 nM.

For `CS(=O)(=O)N1CCC(Nc2cc3c(-c4cccnc4)nccc3cn2)CC1` [Ex 67, N-(1-(methylsulfonyl)piperidin-4-yl)-5-(pyridin-3-yl)-2,6-naphthyridin-3-amine], the IC50 (CDK2/CCNE1; [1]) was 25 to 250 nM and the IC50 (CDK1/CCNB1; [2]) was > 250 nM.

`CS(=O)(=O)N1CCC(Nc2cc3c(/C(C#N)=C/O)nccc3cn2)CC1` [Ex 80, (Z)-3-hydroxy-2-(7-((1-(methylsulfonyl)piperidin-4-yl)amino)-2,6-naphthyridin-1-yl)acrylonitrile] was tested, and the IC50 (CDK2/CCNE1; [1]) was 25 to 250 nM and the IC50 (CDK1/CCNB1; [2]) was > 250 nM.

`CS(=O)(=O)N1CCC(Nc2cc3c(-c4ccncc4)nccc3cn2)CC1` [Ex 83, N-(1-(methylsulfonyl)piperidin-4-yl)-5-(pyridin-4-yl)-2,6-naphthyridin-3-amine] was tested, and the IC50 (CDK2/CCNE1; [1]) was 25 to 250 nM and the IC50 (CDK1/CCNB1; [2]) was > 250 nM.

For `CS(=O)(=O)N1CCC(Nc2cc3c(-c4ccc(CN5CCOCC5)cc4)nccc3cn2)CC1` [Ex 84, N-(1-(methylsulfonyl)piperidin-4-yl)-5-(4-(morpholinomethyl)phenyl)-2,6-naphthyridin-3-amine], the IC50 (CDK2/CCNE1; [1]) was 25 to 250 nM and the IC50 (CDK1/CCNB1; [2]) was > 250 nM.

With `COc1ncc(-c2nccc3cnc(NC4CCN(S(C)(=O)=O)CC4)cc23)cn1` [Ex 85, 5-(2-methoxypyrimidin-5-yl)-N-(1-(methylsulfonyl)piperidin-4-yl)-2,6-naphthyridin-3-amine] the IC50 (CDK2/CCNE1; [3]) was > 250 nM and the IC50 (CDK1/CCNB1; [2]) was > 250 nM.

In the case of `CS(=O)(=O)N1CCC(Nc2cc3c(-c4ccc(C(=O)O)cc4)nccc3cn2)CC1` [Ex 86, 4-(7-((1-(methylsulfonyl)piperidin-4-yl)amino)-2,6-naphthyridin-1-yl)benzoic acid], the IC50 (CDK2/CCNE1; [3]) is reported as > 250 nM and the IC50 (CDK1/CCNB1; [2]) is reported as > 250 nM.

With `CS(=O)(=O)N1CCC(Nc2cc3c(-c4cnc5[nH]ccc5c4)nccc3cn2)CC1` [Ex 88, N-(1-(methylsulfonyl)piperidin-4-yl)-5-(1H-pyrrolo[2,3-b]pyridin-5-yl)-2,6-naphthyridin-3-amine] the IC50 (CDK2/CCNE1; [1]) was 25 to 250 nM and the IC50 (CDK1/CCNB1; [2]) was > 250 nM.

In the case of `CS(=O)(=O)N1CCC(Nc2cc3c(C(=O)NC4CC4)nccc3cn2)CC1` [Ex 93, N-cyclopropyl-7-((1-(methylsulfonyl)piperidin-4-yl)amino)-2,6-naphthyridine-1-carboxamide], the IC50 (CDK2/CCNE1; [3]) is reported as > 250 nM and the IC50 (CDK1/CCNB1; [2]) is reported as > 250 nM.

For `C=CS(=O)(=O)N1CCC(Nc2cc3c(N4CCC(O)CC4)nccc3cn2)CC1` [Ex 105, 1-(7-((1-(vinylsulfonyl)piperidin-4-yl)amino)-2,6-naphthyridin-1-yl)piperidin-4-ol], the IC50 (CDK2/CCNE1; [4]) was < 25 nM and the IC50 (CDK1/CCNB1; [2]) was > 250 nM.

For `C=CS(=O)(=O)N1CCC(Nc2cc3c(-c4cnn(C)c4)nccc3cn2)CC1` [Ex 108, 5-(1-methyl-1H-pyrazol-4-yl)-N-(1-(vinylsulfonyl)piperidin-4-yl)-2,6-naphthyridin-3-amine], the IC50 (CDK2/CCNE1; [1]) was 25 to 250 nM and the IC50 (CDK1/CCNB1; [2]) was > 250 nM.

`C=CS(=O)(=O)N1CCC(Nc2cc3c(-c4ccc(C#N)nc4)nccc3cn2)CC1` [Ex 109, 5-(7-((1-(vinylsulfonyl)piperidin-4-yl)amino)-2,6-naphthyridin-1-yl)picolinonitrile] was tested, and the IC50 (CDK2/CCNE1; [1]) was 25 to 250 nM and the IC50 (CDK1/CCNB1; [2]) was > 250 nM.

For `N#CC1CCN(c2nccc3cnc(Nc4ccc(C(=O)ON5C(=O)CCC5=O)cc4)cc23)CC1` [Ex 110, 2,5-dioxopyrrolidin-1-yl 4-((5-(4-cyanopiperidin-1-yl)-2,6-naphthyridin-3-yl)amino)benzoate], the IC50 (CDK2/CCNE1; [4]) was < 25 nM and the IC50 (CDK1/CCNB1; <25 nM, read-out: CDK1/CCNB IC50 <25 nM) was < 25 nM.

With `N#CC1CCN(c2nccc3cnc(Nc4cccc(C(=O)ON5C(=O)CCC5=O)c4)cc23)CC1` [Ex 111, 2,5-dioxopyrrolidin-1-yl 3-((5-(4-cyanopiperidin-1-yl)-2,6-naphthyridin-3-yl)amino)benzoate] the IC50 (CDK2/CCNE1; [1]) was 25 to 250 nM and the IC50 (CDK1/CCNB1; [2]) was > 250 nM.

`CS(=O)(=O)N1CCC(Nc2cc3c(N4CCCCC4)nc(C(F)F)cc3cn2)CC1` [Ex 118, 7-(difluoromethyl)-N-(1-(methylsulfonyl)piperidin-4-yl)-5-(piperidin-1-yl)-2,6-naphthyridin-3-amine] was tested, and the IC50 (CDK2/CCNE1; [1]) was 25 to 250 nM and the IC50 (CDK1/CCNB1; [2]) was > 250 nM.

`CS(=O)(=O)N1CCC(Nc2cc3c(N4CCCCC4)nc(CCl)cc3cn2)CC1` [Ex 119, 7-(chloromethyl)-N-(1-(methylsulfonyl)piperidin-4-yl)-5-(piperidin-1-yl)-2,6-naphthyridin-3-amine] was tested, and the IC50 (CDK2/CCNE1; [3]) was > 250 nM and the IC50 (CDK1/CCNB1; [2]) was > 250 nM.

With `Cn1cc(-c2nccc3cnc(Nc4ccc(S(C)(=O)=O)cc4)cc23)nn1` [Ex 125, 5-(1-methyl-1H-1,2,3-triazol-4-yl)-N-(4-(methylsulfonyl)phenyl)-2,6-naphthyridin-3-amine] the IC50 (CDK2/CCNE1; [1]) was 25 to 250 nM and the IC50 (CDK1/CCNB1; [2]) was > 250 nM.

`CS(=O)(=O)c1ccc(Nc2cc3c(-c4ccc5[nH]cnc5c4)nccc3cn2)cc1` [Ex 126, 5-(1H-benzo[d]imidazol-5-yl)-N-(4-(methylsulfonyl)phenyl)-2,6-naphthyridin-3-amine] was tested, and the IC50 (CDK2/CCNE1; [1]) was 25 to 250 nM and the IC50 (CDK1/CCNB1; [2]) was > 250 nM.

In the case of `N#CC1CCN(c2nccc3cnc(Nc4ccc(C=O)cc4)cc23)CC1` [Ex 128, 1-(7-((4-formylphenyl)amino)-2,6-naphthyridin-1-yl)piperidine-4-carbonitrile], the IC50 (CDK2/CCNE1; [1]) is reported as 25 to 250 nM and the IC50 (CDK1/CCNB1; [2]) is reported as > 250 nM.

For `N#CC1CCN(c2nccc3cnc(Nc4ccc(CO)cc4)cc23)CC1` [Ex 132, 1-(7-((4-(hydroxymethyl)phenyl)amino)-2,6-naphthyridin-1-yl)piperidine-4-carbonitrile], the IC50 (CDK2/CCNE1; [1]) was 25 to 250 nM and the IC50 (CDK1/CCNB1; [2]) was > 250 nM.

With `N#CC1CCN(c2nccc3cnc(Nc4ccc(CCO)cc4)cc23)CC1` [Ex 133, 1-(7-((4-(2-hydroxyethyl)phenyl)amino)-2,6-naphthyridin-1-yl)piperidine-4-carbonitrile] the IC50 (CDK2/CCNE1; [1]) was 25 to 250 nM and the IC50 (CDK1/CCNB1; [2]) was > 250 nM.

With `N#CC1CCN(c2nccc3cnc(Nc4cccc(CO)c4)cc23)CC1` [Ex 134, 1-(7-((3-(hydroxymethyl)phenyl)amino)-2,6-naphthyridin-1-yl)piperidine-4-carbonitrile] the IC50 (CDK2/CCNE1; [1]) was 25 to 250 nM and the IC50 (CDK1/CCNB1; [2]) was > 250 nM.

In the case of `CS(=O)(=O)c1ccc(Nc2cc3c(-c4cc5cc[nH]c5cn4)nccc3cn2)cc1` [Ex 135, N-(4-(methylsulfonyl)phenyl)-5-(1H-pyrrolo[2,3-c]pyridin-5-yl)-2,6-naphthyridin-3-amine], the IC50 (CDK2/CCNE1; [1]) is reported as 25 to 250 nM and the IC50 (CDK1/CCNB1; [2]) is reported as > 250 nM.

For `N#CC1CCN(c2nccc3cnc(Nc4cccc(C=O)c4)cc23)CC1` [Ex 140, 1-(7-((3-formylphenyl)amino)-2,6-naphthyridin-1-yl)piperidine-4-carbonitrile], the IC50 (CDK2/CCNE1; [1]) was 25 to 250 nM and the IC50 (CDK1/CCNB1; [2]) was > 250 nM.

For `N#CC1CCN(c2nccc3cnc(Nc4cccc(CCO)c4)cc23)CC1` [Ex 143, 1-(7-((3-(2-hydroxyethyl)phenyl)amino)-2,6-naphthyridin-1-yl)piperidine-4-carbonitrile], the IC50 (CDK2/CCNE1; [1]) was 25 to 250 nM and the IC50 (CDK1/CCNB1; [2]) was > 250 nM.

`Cn1nncc1-c1nccc2cnc(Nc3ccc(S(C)(=O)=O)cc3)cc12` [Ex 144, 5-(1-methyl-1H-1,2,3-triazol-5-yl)-N-(4-(methylsulfonyl)phenyl)-2,6-naphthyridin-3-amine] was tested, and the IC50 (CDK2/CCNE1; [3]) was > 250 nM and the IC50 (CDK1/CCNB1; [2]) was > 250 nM.
